Holding throughout (test): NCI tumour cell line growth inhibition, 48 h
Assay [1] has as its system CCRF-CEM leukemia.
Assay [2] has as its system HCC-2998 colon.
For assay [3], the system named is SNB-19 CNS.
Assay [4] relates to SW-620 colon.
The test system of assay [5] is HOP-92 NSCLC.
Assay [6] has as its system UACC-257 melanoma.
Assay [7] relates to HS 578T breast.
The subject of assay [8] is K-562 leukemia.
Assay [9] concerns NCI-H522 lung.
For assay [10], the system named is TK-10 renal.

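Results reflect a 48-hour exposure of cells in 96-well plates to compound at five concentrations. GI50: concentration for 50% inhibition of growth. TGI: total growth inhibition.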

Among the data in PubChem BioAssay (NCI) are GI50 and TGI values, retold here.

Take `CC(C)(C)c1ccc(C2CC(=O)C3=C(C2)Nc2ccccc2N(C(=O)c2ccccc2Cl)C3c2ccc(F)cc2)cc1` (centres undefined): the GI50 in assay [1], in assay [2], in assay [3], in assay [4], in [5] and in assay [6] was > 100 µM in each case. The GI50 in assay [7] is > 100 µM. For the same compound, the TGI in [1], in assay [2], in assay [3], in assay [4], in [5] and in assay [6] was > 100 µM throughout. The TGI in [7] is > 100 µM.

Regarding `COc1ccc(Nc2ncnc3ccc(-c4cncc(NS(C)(=O)=O)c4)cc23)cc1Cl`, the GI50 in [1] was 0.896 µM; in assay [2], 4.03 µM; in assay [3], 2.81 µM; in assay [4], 3.23 µM; in [5] it was 0.348 µM; in [6], 2.82 µM. The GI50 in assay [8] was 3.2 µM; in assay [9], 1.18 µM; in assay [7], 1.26 µM. Besides, the TGI in assay [1] came to 10 µM; in assay [2] it was 15.4 µM; in [3] it was 24.4 µM; in [4], 12.4 µM; in assay [5], 4.62 µM; in assay [6] it was 14 µM. For the same compound, the TGI in assay [8] amounted to 18.7 µM; in [9], 4.08 µM; in assay [7], 5.18 µM.

For `CC(C)[P+](c1ccccc1)(c1ccccc1)c1ccccc1`, the GI50 was 4.2 µM in assay [1]; 3.36 µM in assay [2]; 5.54 µM in assay [3]; 6.83 µM in assay [4]; 1.07 µM in assay [6]; 2.4 µM in [8]. The GI50 in assay [9] was 2.6 µM; in [7], 13.4 µM. Besides, the TGI in assay [1] is > 100 µM; in assay [2], > 100 µM; in [3], > 100 µM; in assay [4], > 100 µM; in assay [6], 7.06 µM; in assay [8] it was > 100 µM. Moreover, the TGI in [9] is 26.5 µM; in assay [7], > 100 µM.

For `NC1=NC(SCc2ccccc2CCl)c2ncn(Cc3ccccc3CCl)c2N1` (centres undefined), the GI50 was 1.79 µM in assay [1]; 4.83 µM in assay [3]; 1.54 µM in [4]; 3.29 µM in assay [10]; 1.1 µM in [5]; 1.54 µM in [6]. In addition, the GI50 in assay [8] was 2.35 µM; in assay [7] it was 3.51 µM. The TGI was found to be 5.68 µM in assay [1]; 23.2 µM in [3]; 3.57 µM in assay [4]; 11.9 µM in assay [10]; 2.39 µM in [5]; 3.07 µM in assay [6]. In addition, the TGI is 10.2 µM in assay [8] and > 100 µM in assay [7].

As to `CCc1ccc2oc(=O)ccc2c1`, the TGI in [1], in [2], in assay [3], in assay [4], in assay [5] and in [6] was > 100 µM each time. Further, the TGI in assay [8], in [9] and in [7] was > 100 µM throughout.

For `Cc1cc(=O)[nH]c(N/N=C/c2ccccc2O)n1`, the GI50 in assay [1] is 4.02 µM; in assay [2], 12.3 µM; in assay [3] it was 24.5 µM; in [4] it was 4.6 µM; in [6] it was 3.67 µM; in [8] it was 5.82 µM. Besides, the GI50 is 7.67 µM in assay [9] and > 100 µM in assay [7]. Moreover, the TGI is > 100 µM in assay [1]; > 100 µM in [2]; > 100 µM in assay [3]; > 100 µM in assay [4]; 34.7 µM in assay [6]; > 100 µM in assay [8]. The TGI in assay [9] and in assay [7] was > 100 µM each time.

With `CC12CCC(=O)C(O1)C1C(=O)c3ccc4c(ccc5ccccc54)c3C(=O)C12` (centres undefined), the GI50 in [1] is 3.77 µM; in assay [3], 20.9 µM; in assay [10], 3.47 µM; in assay [5], 7.1 µM; in assay [6] it was 3.11 µM; in assay [8], 1.72 µM. The GI50 was 5.52 µM in assay [9] and 9.77 µM in assay [7]. Also, the TGI was > 100 µM in [1]; 52 µM in assay [3]; 7.89 µM in assay [10]; 32.3 µM in [5]; 8.15 µM in assay [6]; 7.3 µM in assay [8]. Besides, the TGI in assay [9] is 14.3 µM; in assay [7], > 26.1 µM.

Turning to `Cc1nc(NS(=O)(=O)c2ccc(NCN3C(=O)c4ccccc4C3=O)cc2)oc1C`, the GI50 in assay [1] was 0.0113 µM; in [2], > 100 µM; in [3] it was > 100 µM; in assay [4], > 100 µM; in [10], > 100 µM; in [6], > 100 µM. The GI50 in assay [8], in [9] and in assay [7] was > 100 µM each time. Further, the TGI was 0.0422 µM in assay [1]; > 100 µM in assay [2]; > 100 µM in assay [3]; > 100 µM in [4]; > 100 µM in assay [10]; > 100 µM in assay [6]. Moreover, the TGI in assay [8], in [9] and in [7] was > 100 µM each time.

For the compound `O=C1CC(c2cccc(Cl)c2)Oc2ccccc21` (centres undefined), the TGI in assay [1] came out at 48.4 µM; in assay [2] it was 35.7 µM; in assay [3], 30.8 µM; in [4], 72.1 µM; in [5], 42.2 µM; in [6] it was 32.2 µM. Besides, the TGI in [8] was 6.4 µM; in [7] it was 61.8 µM.

Turning to `CCOC(=O)c1c(-c2ccccc2)[n+](=O)c2cc(F)c(F)cc2n1[O-]`, the GI50 was 1.95 µM in assay [3]; 0.494 µM in assay [4]; 16.6 µM in [10]; 1.14 µM in [5]; 2.09 µM in [6]; 0.702 µM in assay [8]. Further, the values for the GI50 in assay [9] and in assay [7] were 36.5 µM and 2.38 µM, respectively. The TGI in [3] is 3.45 µM; in assay [4] it was 3.57 µM; in assay [10], 32 µM; in [5] it was 2.73 µM; in assay [6], 3.88 µM; in [8], > 100 µM. For the same compound, the TGI in [9] is > 100 µM; in assay [7] it was 6.26 µM.

Turning to `CC(C)=Cc1cc(C)c2ccc(C)c3c2c1C(C)=C(O)C3=O`, the GI50 was 4.45 µM in assay [1]; 18 µM in assay [2]; 23.1 µM in assay [3]; 30 µM in assay [4]; 44.6 µM in assay [10]; 39.5 µM in assay [6]. The results for the GI50 in [8], in assay [9] and in [7] were 10.3 µM, 19.8 µM and 25.7 µM, respectively. In addition, the TGI was 19.7 µM in [1]; 37.4 µM in assay [2]; 75.6 µM in assay [3]; > 100 µM in assay [4]; > 100 µM in [10]; > 100 µM in assay [6]. The values for the TGI in assay [8], in assay [9] and in assay [7] were 24.7 µM, 46.4 µM and 74.9 µM, respectively.

`CCC[CH2][Sn]([CH2]CCC)([CH2]CCC)/[C](=C/[Si](C)(C)c1ccccc1)c1ccc2c(c1)OCO2`: the GI50 in assay [1] was 12 µM; in assay [3], 21.3 µM; in assay [4], 20.9 µM; in assay [10], 33.8 µM; in [5] it was 11.4 µM; in assay [6], 22.4 µM. Also, the GI50 was 22.9 µM in assay [8], 9.71 µM in assay [9] and 42.6 µM in assay [7]. Moreover, the TGI in assay [1] was 73.2 µM; in assay [3], 49.7 µM; in [4], 59.3 µM; in assay [10] it was 99.1 µM; in assay [5] it was 29.4 µM; in assay [6], 58.7 µM. Further, the values for the TGI in assay [8], in assay [9] and in assay [7] were 73.9 µM, > 100 µM and > 100 µM, respectively.

`CC1CCCC(C#N)(NOC2=NCCN2)C1` (centres undefined): the GI50 in assay [1] was 53.8 µM; in [3] it was > 100 µM; in assay [4], 36.3 µM; in [10], 12.9 µM; in assay [5], 36.5 µM; in [6], 97.5 µM. Also, the GI50 in assay [8] is 17.4 µM; in assay [9] it was 29 µM; in assay [7] it was 52.3 µM. For the same compound, the TGI in assay [1] was > 100 µM; in assay [3], > 100 µM; in assay [4], > 100 µM; in [10], 46.2 µM; in [5], 75.1 µM; in [6], > 100 µM. For the same compound, the results for the TGI in assay [8], in assay [9] and in assay [7] were 61.5 µM, > 100 µM and > 100 µM, respectively.

Turning to `N#CC1=C(N)NC(N2CCOCC2)=NC12Nc1ccccc1O2` (centres undefined), the GI50 in assay [1] was 44 µM; in assay [3], 90.7 µM; in assay [4] it was 43.2 µM; in assay [10], 34 µM; in assay [5], > 100 µM; in assay [6] it was 49.7 µM. Moreover, the GI50 in assay [8] is 39.2 µM; in assay [9], 23 µM; in assay [7], 23.6 µM. In addition, the TGI in assay [1], in assay [3], in assay [4], in assay [10], in assay [5] and in [6] was > 100 µM each time. In addition, the values for the TGI in assay [8], in assay [9] and in [7] were > 100 µM, 75 µM and 68.1 µM, respectively.

With `O=C1CS/C(=N/S(=O)(=O)c2ccc(N3N=C4c5ccccc5CC4C3c3cccs3)cc2)N1C(=O)c1ccccc1` (centres undefined), the GI50 in assay [1] was 37.5 µM; in assay [2], 17.6 µM; in assay [3], 77 µM; in assay [4] it was 38.5 µM; in [5], 37.3 µM; in [6], > 100 µM. Further, the results for the GI50 in assay [9] and in assay [7] were 60.1 µM and 25.3 µM, respectively. In addition, the TGI is > 100 µM in assay [1]; 46.6 µM in assay [2]; > 100 µM in assay [3]; > 100 µM in assay [4]; > 100 µM in [5]; > 100 µM in assay [6]. The TGI in assay [9] and in assay [7] was > 100 µM in each case.

Regarding `CCCCC#Cc1c(I)n(C2OC(CO[Si](C)(C)C(C)(C)C)C3OC(C)(C)OC32)c(=O)n(C(=O)c2ccccc2)c1=O` (centres undefined), the GI50 is 13.4 µM in assay [1]; 14.1 µM in assay [3]; 2.33 µM in assay [4]; 1.78 µM in [10]; 0.885 µM in [5]; 16.4 µM in [6]. The GI50 in assay [8] is 15 µM; in assay [9] it was 1.84 µM; in assay [7] it was 7.17 µM. Further, the TGI in assay [1] was 33.4 µM; in [3], 28.4 µM; in assay [4], 6.03 µM; in [10], 3.19 µM; in assay [5] it was 13.5 µM; in [6] it was 30.7 µM. The TGI in assay [8] was determined as 36.2 µM; in assay [9] it was 3.93 µM; in assay [7] it was 43.6 µM.

Take `COc1cc(Cl)c(CC(=O)c2c[nH]c3ccccc23)cc1OC`: the TGI in assay [1] was > 57.5 µM; in assay [3], > 95 µM; in assay [4], > 100 µM; in assay [10], > 74 µM; in [5], 15.6 µM; in [6], > 100 µM. Also, the TGI in assay [8] and in assay [7] was > 100 µM in each case.

`O=c1cc(-c2ccccc2)[nH]c2c1CCCC2`: the GI50 in assay [1] was 3.4 µM; in [2], 2.5 µM; in assay [3], 8.9 µM; in assay [4] it was 1.64 µM; in assay [10], 70.6 µM; in assay [6], 67 µM. Besides, the GI50 in [8] is 0.85 µM; in [9] it was 2 µM; in assay [7], 2.01 µM. Further, the TGI in assay [1] is > 100 µM; in [2], 31.9 µM; in [3], > 100 µM; in assay [4], > 100 µM; in assay [10] it was > 100 µM; in [6] it was > 100 µM. Besides, the TGI in assay [8] is > 100 µM; in [9], 6.71 µM; in assay [7], 8.56 µM.
